In US10383938B2 (priority 2010, dated 2019):
“And” between values parts separate entries of the source, which are not always exact repeats. Equal values may be shown once.

Assays:
HA-specific IgG2a = tested on: HA-specific IgG2a; set-up: species or system mice; conditions: mouse, in vivo, sc, 1 mg/kg
[1] = tested on: HA-specific IgG1 and IgG2a; set-up: species or system Balb/c male mice; conditions: mouse, in vivo

SMILES	HA Specific IgG2a, Serum Dilution End Point (HA-specific IgG2a)	IgG1 End Point [1]	antibody response to HA (in words) ([1]; 0.1 mg/kg)
CCCCCCCCCCCCCCCCCC(=O)NCCCCOn1c(CCCC)nc2c(N)nc3ccccc3c21 [N-(4-{[4-amino-2-butyl-1H-imidazo[4,5-c]quinolin-1-yl]oxy}butyl)octadecanamide]	1.42E+04	1.7E7 and 1.4E7 and 1.1E7	greatly enhanced the antibody response
CCOCc1nc2c(N)nc3ccccc3c2n1CC(C)(C)O [Resiquimod, resiquimod, reference compound]	1.00E+05		
